Laboratory results as given in patent US7902197B2, “Pyrrolopyrazine kinase inhibitors” (Roche Palo Alto LLC, priority 2008, dated 2011).

Columns and labels:
[1] = target: JAK3: Recombinant human kinase domain (Homo sapiens, UniProt P52333); test: Determination of IC50 of Janus Kinase (JAK) inhibition, radioactive end-point 33P-ATP assay, JAK3; assay type: biochemical; details: 0.5 nM or 0.2 nM JAK3, ATP 1.5 uM, peptide 50 uM, 20 minutes; read-out: IC50 h-jak3-sf21-c
Excerpt: (§1) Determination of IC50 of Janus Kinase (JAK) Inhibition: […]

[2] = target: JAK2: Recombinant human kinase domain (Homo sapiens, UniProt O60674); test: Determination of IC50 of Janus Kinase (JAK) inhibition, radioactive end-point 33P-ATP assay, JAK2; assay type: biochemical; details: 1 nM JAK2, ATP 1.5 uM, peptide 50 uM, 20 minutes; read-out: IC50 h-jak2-sf21-c
Excerpt: as §1

Sequence of JAK3: Recombinant human kinase domain (P52333 822-1111 limits assumed): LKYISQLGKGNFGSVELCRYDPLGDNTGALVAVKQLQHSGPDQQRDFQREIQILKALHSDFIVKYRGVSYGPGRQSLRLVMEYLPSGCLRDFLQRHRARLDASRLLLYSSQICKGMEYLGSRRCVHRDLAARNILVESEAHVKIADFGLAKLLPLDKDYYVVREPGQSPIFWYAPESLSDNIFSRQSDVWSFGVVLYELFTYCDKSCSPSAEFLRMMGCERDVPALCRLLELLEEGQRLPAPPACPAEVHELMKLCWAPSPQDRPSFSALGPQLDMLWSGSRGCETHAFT
Sequence of JAK2: Recombinant human kinase domain (O60674 849-1124 limits assumed): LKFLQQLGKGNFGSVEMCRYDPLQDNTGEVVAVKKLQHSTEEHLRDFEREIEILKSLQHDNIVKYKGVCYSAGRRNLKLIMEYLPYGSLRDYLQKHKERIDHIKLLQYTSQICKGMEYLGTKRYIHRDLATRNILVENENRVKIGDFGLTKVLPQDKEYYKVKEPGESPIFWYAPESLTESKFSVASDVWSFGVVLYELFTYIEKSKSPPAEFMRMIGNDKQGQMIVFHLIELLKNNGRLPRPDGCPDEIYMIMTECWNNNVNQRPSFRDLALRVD

Row | Compound | IC50 [1] | melting point | IC50 [2]
1 | CC(C)(C)C(=O)c1cnc2[nH]cc(C(=O)C(C)(C)C)c2n1 [Compound I-2, 1-[7-(2,2-Dimethyl-propionyl)-5H-pyrrolo[2,3-b]pyrazin-2-yl]-2,2-dimethyl-propan-1-one] |  | 188 to 198 °C | 
2 | CC(C)NC(=O)c1c[nH]c2ncc(N(C)C3CCCC3)nc12 [Compound I-1, 2-(Cyclopentyl-methyl-amino)-5H-pyrrolo[2,3-b]pyrazine-7-carboxylic acid isopropylamide] | 0.0592 µM | 277 to 278 °C | 0.129 µM
3 | CC(C)(C)C(=O)c1c[nH]c2ncc(C(=O)NC3CCCC3)nc12 [Compound I-15, 7-(2,2-Dimethyl-propionyl)-5H-pyrrolo[2,3-b]pyrazine-2-carboxylic acid cyclopentylamide] |  | 237.9 to 241.5 °C | 

The next lines start with the values.

Row | IC50 [1] | melting point | IC50 [2] | Compound
4 | 0.471 µM |  |  | CN1CCN(c2ccc(Nc3cnc4[nH]cc(C(=O)C(C)(C)C)c4n3)cc2)CC1 [Compound I-34, 2,2-Dimethyl-1-{2-[4-(4-methyl-piperazin-1-yl)-phenylamino]-5H-pyrrolo[2,3-b]pyrazin-7-yl}-propan-1-one]
5 | 0.498 µM |  |  | CN1CCN(c2cccc(Nc3cnc4[nH]cc(C(=O)C(C)(C)C)c4n3)c2)CC1 [Compound I-35, 2,2-Dimethyl-1-{2-[3-(4-methyl-piperazin-1-yl)-phenylamino]-5H-pyrrolo[2,3-b]pyrazin-7-yl}-propan-1-one]
